In brackets after ≈: the same amount, converted by molar mass. Where two headings read alike, the source gives them in different places.
What was measured:
Type in all cases: cell-based
E. coli = experiment: Broth dilution MIC determination (CLSI) against E. coli strains; conditions: Escherichia coli
Procedure, shortened: (§1)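 MICs were determined by CLSI standard broth dilution against several strains per species, including multidrug-resistant and macrolide-resistant strains. Azithromycin and solithromycin served as control compounds.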

S. aureus = experiment: Broth dilution MIC determination (CLSI) against S. aureus strains; conditions: for MIC: Staphylococcus aureus
Procedure, shortened: as §1

S. pyogenes = experiment: Broth dilution MIC determination (CLSI) against S. pyogenes strains; conditions: Streptococcus pyogenes
Procedure, shortened: as §1

K. pneumoniae = experiment: Broth dilution MIC determination (CLSI) against K. pneumoniae strains; conditions: for MIC: Klebsiella pneumoniae
Procedure, shortened: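 Azithromycin and solithromycin served as controls; MICs were obtained by standard CLSI broth dilution on a strain panel including multidrug-resistant and macrolide-resistant isolates.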

E. faecalis = experiment: Broth dilution MIC determination (CLSI) against E. faecalis strains; conditions: for MIC: Enterococcus faecalis
Procedure, shortened: as §1

S. pneumoniae = experiment: Broth dilution MIC determination (CLSI) against S. pneumoniae strains; conditions: for MIC: Streptococcus pneumoniae
Procedure, shortened: as §1

P. aeruginosa = experiment: Broth dilution MIC determination (CLSI) against P. aeruginosa strains; conditions: Pseudomonas aeruginosa
Procedure, shortened: as §1

H. influenzae = experiment: Broth dilution MIC determination (CLSI) against H. influenzae strains; conditions: for MIC: Haemophilus influenzae
Procedure, shortened: as §1

A. baumannii = experiment: Broth dilution MIC determination (CLSI) against A. baumannii strains; conditions: Acinetobacter baumannii
Procedure, shortened: as §1

[1] = ATCC25922, ATCC25922, read-out: MIC E. coli ATCC25922
[2] = read-out: MIC E. coli NDM-1, NDM-1
[3] = ATCC29213, ATCC29213, read-out: MIC S. aureus ATCC29213
[4] = MRSA / USA100, MRSA: USA100, read-out: MIC S. aureus MRSA: USA100
[5] = MRSA / USA300, MRSA: USA300, read-out: MIC S. aureus MRSA: USA300
[6] = USA600, USA600, GISA, read-out: MIC S. aureus USA600, GISA
[7] = read-out: MIC S. aureus erm A genotype
[8] = ATCC19615, ATCC19615, read-out: MIC S. pyogenes ATCC19615
[9] = macrolide-resistant, read-out: MIC S. pyogenes macrolide-resistant
[10] = ATCC10031, ATCC10031, read-out: MIC K. pneumoniae ATCC10031
[11] = KPC-2, read-out: MIC K. pneumoniae KPC-2
[12] = ATCC29212, ATCC29212, read-out: MIC E. faecalis ATCC29212
[13] = Vancomycin-resistant, read-out: MIC E. faecalis Vancomycin-resistant
[14] = ATCC49619, ATCC49619, read-out: MIC S. pneumoniae ATCC49619
[15] = erm B + mef A genotype, read-out: MIC S. pneumoniae erm B + mef A genotype
[16] = erm B + tet(M, O) genotype, read-out: MIC S. pneumoniae erm B + tet(M, O) genotype
[17] = read-out: MIC S. pneumoniae mef A genotype, mef A genotype, first of two such columns (c3)
[18] = ATCC27853, read-out: MIC P. aeruginosa ATCC27853
[19] = ATCC49247, ATCC49247, read-out: MIC H. influenzae ATCC49247
[20] = erythro > 4, azithro 1, read-out: MIC H. influenzae erythro > 4, azithro 1
[21] = ATCC19606, ATCC19606, read-out: MIC A. baumannii ATCC19606
[22] = imipenem-resistant, read-out: MIC A. baumannii imipenem-resistant
[23] = read-out: MIC E. coli CTX-M-14, CTX-M-14
[24] = read-out: MIC E. coli TEM-1, TEM-1
[25] = SHV-12, read-out: MIC K. pneumoniae SHV-12
[26] = read-out: MIC P. aeruginosa HPA101-1477
[27] = IMP-4, read-out: MIC A. baumannii IMP-4
[28] = chromosomal class C, read-out: MIC A. baumannii chromosomal class C

| Compound | MIC (E. coli; [1]) | MIC (E. coli; [2]) | MIC (S. aureus; [3]) | MIC (S. aureus; [4]) | MIC (S. aureus; [5]) | MIC (S. aureus; [6]) | MIC (S. aureus; [7]) | MIC (S. pyogenes; [8]) | MIC (S. pyogenes; [9]) | MIC (K. pneumoniae; [10]) | MIC (K. pneumoniae; [11]) | MIC (E. faecalis; [12]) | MIC (E. faecalis; [13]) | MIC (S. pneumoniae; [14]) | MIC (S. pneumoniae; [15]) | MIC (S. pneumoniae; [16]) | MIC (P. aeruginosa; [18]) | MIC (H. influenzae; [19]) | MIC (A. baumannii; [21]) | MIC (A. baumannii; [22]) | other results |
| --- | --- | --- | --- | --- | --- | --- | --- | --- | --- | --- | --- | --- | --- | --- | --- | --- | --- | --- | --- | --- | --- |
| CC[C@H]1OC(=O)[C@H](C)C(=O)[C@H](C)[C@@H](O[C@@H]2OC(CNC(=O)c3cc[nH]n3)CC(N(C)C)C2O)[C@](C)(OC)C[C@@H](C)CN[C@H](C)[C@H]2N(CCCCn3cc(-c4cccc(N)c4)nn3)C(=O)O[C@]12C (some centres unmarked) [FSM-21888] | 32 µg/mL (≈ 34.1 µM) | > 32 µg/mL | 32 µg/mL (≈ 34.1 µM) | > 32 µg/mL | > 32 µg/mL | > 32 µg/mL | > 32 µg/mL | < 0.0313 µg/mL | 1 µg/mL (≈ 1.07 µM) | 8 µg/mL (≈ 8.54 µM) | > 32 µg/mL | 4 µg/mL (≈ 4.27 µM) | > 32 µg/mL | < 0.0313 µg/mL | 2 µg/mL | < 0.0313 µg/mL | > 32 µg/mL | 8 µg/mL (≈ 8.54 µM) | > 32 µg/mL | > 32 µg/mL | MIC (S. pneumoniae; [17]): 0.25 µg/mL (≈ 0.267 µM); MIC (H. influenzae; [20]): 8 µg/mL (≈ 8.54 µM) |
| CC[C@H]1OC(=O)[C@H](C)C(=O)[C@H](C)[C@@H](O[C@@H]2OC(CN(C)C)CC(N(C)C)C2O)[C@](C)(OC)C[C@@H](C)CN(C)[C@H](C)[C@H]2N(CCCCn3cc(-c4cccc(N)c4)nn3)C(=O)O[C@]12C (some centres unmarked) [FSM-22003] | > 32 µg/mL | > 32 µg/mL | 8 µg/mL (≈ 9.04 µM) | > 32 µg/mL | > 32 µg/mL | > 32 µg/mL | > 32 µg/mL | ≤ 0.0312 µg/mL | 2 µg/mL (≈ 2.26 µM) | 8 µg/mL (≈ 9.04 µM) | > 32 µg/mL | 4 µg/mL (≈ 4.52 µM) | > 32 µg/mL | ≤ 0.0312 µg/mL | 32 µg/mL | ≤ 0.0312 µg/mL | > 32 µg/mL | 8 µg/mL (≈ 9.04 µM) | > 32 µg/mL | > 32 µg/mL | MIC (E. coli; [23]): > 32 µg/mL; MIC (E. coli; [24]): 32 µg/mL (≈ 36.2 µM); MIC (K. pneumoniae; [25]): > 32 µg/mL; MIC (K. pneumoniae; TEM-10, read-out: MIC K. pneumoniae TEM-10): > 32 µg/mL; MIC (S. pneumoniae; read-out: MIC S. pneumoniae mef A genotype, mef A genotype): 0.5 µg/mL (≈ 0.565 µM); MIC (S. pneumoniae; [17]): 0.0625 µg/mL (≈ 0.0706 µM); MIC (P. aeruginosa; [26]): > 32 µg/mL; MIC (H. influenzae; [20]): 4 µg/mL (≈ 4.52 µM); MIC (A. baumannii; [27]): > 32 µg/mL; MIC (A. baumannii; [28]): > 32 µg/mL |
| CC[C@H]1OC(=O)[C@H](C)C(=O)[C@H](C)[C@@H](O[C@@H]2OC(Cn3cc(-c4ccccn4)nn3)CC(N(C)C)C2O)[C@](C)(OC)C[C@@H](C)CN[C@H](C)[C@H]2N(CCCCn3cc(-c4cccc(N)c4)nn3)C(=O)O[C@]12C (some centres unmarked) [FSM-22111] | 16 µg/mL (≈ 16.5 µM) | 32 µg/mL (≈ 32.9 µM) | – | > 32 µg/mL | > 32 µg/mL | > 32 µg/mL | > 32 µg/mL | ≤ 0.0312 µg/mL | 1 µg/mL (≈ 1.03 µM) | 8 µg/mL (≈ 8.23 µM) | 32 µg/mL (≈ 32.9 µM) | – | > 32 µg/mL | ≤ 0.0312 µg/mL | – | ≤ 0.0312 µg/mL | > 32 µg/mL | 2 µg/mL (≈ 2.06 µM) | 16 µg/mL (≈ 16.5 µM) | 16 µg/mL (≈ 16.5 µM) | MIC (E. coli; [23]): > 32 µg/mL; MIC (E. coli; [24]): 16 µg/mL (≈ 16.5 µM); MIC S. aureus ATCC29213 (S. aureus; ATCC29213): 2 µg/mL (≈ 2.06 µM); MIC (K. pneumoniae; [25]): > 32 µg/mL; MIC K. pneumoniae TEM-10 (K. pneumoniae; TEM-10): 8 µg/mL (≈ 8.23 µM); MIC E. faecalis ATCC29212 (E. faecalis; ATCC29212): 0.25 µg/mL (≈ 0.257 µM); MIC S. pneumoniae erm B + mef A genotype (S. pneumoniae; erm B + mef A genotype): 2 µg/mL; MIC (P. aeruginosa; [26]): > 32 µg/mL; MIC H. influenzae erythro > 4, azithro 1 (H. influenzae; erythro > 4, azithro 1): 1 µg/mL (≈ 1.03 µM); MIC (A. baumannii; [27]): > 32 µg/mL; MIC (A. baumannii; [28]): 16 µg/mL (≈ 16.5 µM) |

Source: patent US11535643B2, “Macrolides with modified desosamine sugars and uses thereof” (President and Fellows of Harvard College, priority 2015, dated 2022)
